The target of one data set is JAK3 (Homo sapiens (Human), UniProt P52333). Kind of data set: LanthaScreen JAK biochemical assay, JAK3. The settings on record: read-out: JAK 3 (pKi) (converted). Here is the method:
A panel of four LanthaScreen JAK biochemical assays (JAK1, 2, 3 and Tyk2) were carried in a common kinase reaction buffer (50 mM HEPES, pH 7.5, 0.01% Brij-35, 10 mM MgCl2, and 1 mM EGTA). Recombinant GST-tagged JAK enzymes and a GFP-tagged STAT1 peptide substrate were obtained from Life Technologies.
(In general: Time-resolved FRET reads energy transfer from a long-lived donor to a nearby acceptor.)

In data set [1] the test system is IL-4 stimulated STAT6 phosphorylation in CD3+ T cells in human PBMCs. Kind of data set: Cellular JAK potency assay: inhibition of IL-4 stimulated pSTAT6 in CD3+ T cells. The class given is cell-based. The settings on record: T-cell. The method, then: The potency of test compounds for inhibition of interleukin-4 (IL-4) stimulated STAT6 phosphorylation was measured in CD3-positive (CD3+) T cells in human peripheral blood mononuclear cells (PBMCs) isolated from human whole blood (Stanford Blood Center) using flow cytometry. Because IL-4 signals through JAK, this assay provides a measure of JAK cellular potency.
CD3+ T cells were identified using a […] (PE) conjugated anti-CD3 antibody (Clone UCHT1, BD Biosciences), while an Alexa Fluor 647 conjugated anti-pSTAT6 antibody (pY641, Clone 18/P, BD Biosciences) was used to detect STAT6 phosphorylation.
Human peripheral blood mononuclear cells (PBMC) were isolated from human whole blood of healthy donors using a ficoll gradient. […] After incubation, cells were washed twice in FACS buffer before being analyzed using a LSRII flow cytometer (BD Biosciences).
To determine the inhibitory potency of test compounds in response to IL-4, the median fluorescent intensity (MFI) of pSTAT6 was measured in CD3+ T cells. IC50 values were determined from analysis of the inhibition curves of MFI vs compound concentration. Data are expressed as pIC50 (negative decadic logarithm IC50) values (mean±standard deviation).

A short description of the next data set: in vivo. The settings on record: Sprague Dawley, rat, po.
The conditions of data set [2]: in vivo. From the text:
The objective of this assay was to determine the epidermal, dermal and plasma pharmacokinetics of a test compound following a 24 hr exposure to intact mouse or mini-pig skin.
Twenty-four hours prior to dosing the hair was shaved from the back of 25 g male Balb/c mice exposing an area at of least 6 cm^2 (about 10% of body surface) and, in a separate experiment, of 10 kg Gottingen mini-pigs exposing an area of at least 450 cm^2 (about 10% of body surface). […] The skin was covered with an adhesive cover to prevent loss of compound to the cage or bedding.
Following 24 h exposure, the backs were gently washed with soap and water to remove non-absorbed drug and patted dry. Immediately following this washing, blood was drawn by cardiac puncture from the mice and via venipuncture from the mini-pigs. The outer skin (stratum corneum) was then removed by adhesive tape stripping. Upon exposure of the epidermis a 0.5 cm punch biopsy was taken. The epidermis and dermis were quickly separated, weighed and snap frozen.

Data set [3] relates to oxazolone-induced colitis. Kind of data set: Mouse model of oxazolone-induced colitis. The class given is in vivo, BALB/C mice. Here is the method: Oxazolone-induced colitis is an experimental model that has a histological resemblance to human ulcerative colitis (Heller et al. […], 2002, 17, 629-638). Adult BALB/C mice from Harlan were used in the assay. On day 1, animals were lightly anesthetized with isoflurane and the hairs between the shoulder were carefully removed before oxazolone (4%, 150 μL, 4:1 acetone: olive oil formulation) or vehicle solution was slowly applied for skin sensitization. Seven days after skin sensitization, the mice were fasted overnight, anesthetized with isoflurane inhalation, and a 1 mL syringe equipped with a 3.5-F catheter, filled with oxazolone solution, was inserted carefully about 4 cm into the colon of the mouse. Following insertion, 50 μL of the oxazolone solution (1%, 1:1 ethanol:water formulation) was injected very slowly (over 30 sec using an injection pump) into the colon. The catheter was removed and the mice were held vertically (head down) for 2 min to ensure that the entire oxazolone solution remained inside the colon. Drug treatment (PO, BID or TID) or vehicle was initiated a day prior to the oxazolone intrarectal (IR) challenge. Two-day post oxazolone intrarectal challenge, the Disease Activity Index (DAI) was assessed by treatment-blinded experimenters for each mouse according to the criteria score: stool consistency score (0, normal; 2, loose; 4, diarrhea), gross bleeding score (0, absence; 2, blood tinged; 4, presence), and weight loss score (0, none; 1, 1%-5%; 2, 5%-10%; 3, 10%-20%; 4, more than 20%); DAI=average of (stool consistency score+gross bleeding score+weight loss score).
Selected compounds of the invention were tested in the assay. Efficacy in the model is evidenced by a decrease in DAI score as compared with the score from vehicle treated animals.

One compound from patent US10028960B2, “Pyrimidine compounds as JAK kinase inhibitors” (THERAVANCE BIOPHARMA R&D IP, LLC, priority 2016, dated 2018) can be followed below.

Read-outs that look alike come from different tables or passages of the source. Where only a bound is given, the exact number is not on record here.

Sequence of JAK3 (P52333 whole entry): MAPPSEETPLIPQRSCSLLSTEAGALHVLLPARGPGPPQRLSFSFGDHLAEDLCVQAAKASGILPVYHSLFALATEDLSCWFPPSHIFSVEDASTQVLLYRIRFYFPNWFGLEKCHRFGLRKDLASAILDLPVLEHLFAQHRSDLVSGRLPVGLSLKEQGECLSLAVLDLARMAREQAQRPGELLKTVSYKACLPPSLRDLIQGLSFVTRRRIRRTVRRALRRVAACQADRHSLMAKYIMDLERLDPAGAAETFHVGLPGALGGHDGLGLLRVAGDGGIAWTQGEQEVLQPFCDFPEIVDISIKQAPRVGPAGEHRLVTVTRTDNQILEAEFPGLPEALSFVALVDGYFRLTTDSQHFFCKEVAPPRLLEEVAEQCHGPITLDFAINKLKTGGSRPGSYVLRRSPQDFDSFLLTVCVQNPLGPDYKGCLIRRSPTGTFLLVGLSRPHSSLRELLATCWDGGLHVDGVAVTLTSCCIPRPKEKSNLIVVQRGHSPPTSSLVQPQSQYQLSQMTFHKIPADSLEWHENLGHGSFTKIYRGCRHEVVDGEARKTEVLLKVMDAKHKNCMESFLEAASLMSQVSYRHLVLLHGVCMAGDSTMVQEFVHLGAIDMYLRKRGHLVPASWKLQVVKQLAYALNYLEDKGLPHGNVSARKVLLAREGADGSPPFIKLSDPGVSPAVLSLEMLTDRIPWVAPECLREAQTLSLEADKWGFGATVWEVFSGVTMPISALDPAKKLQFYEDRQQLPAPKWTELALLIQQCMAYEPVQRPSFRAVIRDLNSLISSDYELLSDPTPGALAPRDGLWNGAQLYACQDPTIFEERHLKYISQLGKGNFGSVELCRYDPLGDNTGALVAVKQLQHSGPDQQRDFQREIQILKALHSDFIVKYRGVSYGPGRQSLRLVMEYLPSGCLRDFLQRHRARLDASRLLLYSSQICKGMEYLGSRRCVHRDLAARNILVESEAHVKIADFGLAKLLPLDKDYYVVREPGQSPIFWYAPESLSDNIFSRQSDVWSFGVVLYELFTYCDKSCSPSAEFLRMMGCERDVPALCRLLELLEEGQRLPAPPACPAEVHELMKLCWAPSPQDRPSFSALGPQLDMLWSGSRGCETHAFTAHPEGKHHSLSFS
Method for in vivo: The test compound was formulated in 0.5% methyl-cellulose in water and dosed via oral gavage at 3.2 mg/kg and 100 mg/kg to Sprague Dawley rats. At various time points (typically 0.5, 1, 3, 6, 24 hr) post dosing, blood samples were removed via cardiac puncture and intact colons were excised from the rats. Blood samples were centrifuged at 1500×g for 15 min to collect plasma. Colons were washed with ice cold phosphate buffered saline (PBS), weighed, and homogenized at a dilution of 1:10 in PBS. Plasma and colon levels of test compound were determined by LC-MS analysis against analytical standards constructed into a standard curve in the test matrix. A colon to plasma ratio was determined as the ratio of the colon AUC to the plasma AUC in μg hr/g.

In the case of `COc1cc(Nc2cc(CO)[nH]n2)nc(N(C)[C@@H]2C[C@H]3CCC[C@@H](C2)N3S(=O)(=O)N2CC(C#N)C2)n1` [Example 2, 1-(((1R,3s,5S)-3-((4-((5-(Hydroxymethyl)-1H-pyrazol-3-yl)amino)-6-methoxypyrimidin-2-yl)(methyl)amino)-9-azabicyclo[3.3.1]nonan-9-yl)sulfonyl)azetidine-3-carbonitrile], the Ki at JAK3 was 0.1 to 1 nM. For the same compound, the IC50 in data set [1] (IL-4 stimulated pSTAT6, CD3+ T cells, read-out: pIC50 value (converted)) was roughly 50.1 nM; in data set [1] (cellular assay, Assay 4, read-out: IC50 for inhibition of IL-4), no more than 50 nM. In addition, the Kp was greater than 250 in “in vivo” (5 mg/kg) and greater than 1200 in the data set “in vivo” (100 mg/kg). Moreover, the “duration of sustained dermal levels” value in data set [2] (Gottingen, minipig) is reported as “at least 7 days”; in data set [2] (male, Balb/c, mouse), “at least 2 days”. The “activity in the oxazolone-induced colitis model” value in data set [3] (mice) is recorded as “demonstrated activity”. The “minimal dose that caused a significant anti-colitic effect” value in data set [3] (mouse, PO BID) worked out at 1 mg/kg. For the same compound, in data set [3] (mouse, PO, 1, 3, and/or 10 mg/kg BID), the “decrease in DAI score as compared with vehicle treated animals” value is “statistically significant decrease”.
